Reference: US20240118267A1, “CELL CULTURE GROWTH APPARATUS AND METHOD OF UNDERSIDE ATTACHMENT TO A SURFACE USING CELL SEEDING” (Georgia Tech Research Corporation, priority 2021, published 2024)
Where a name gives a salt, the structure may show the parent alone. Each block holds one compound with its values, some of them ahead of it.

Columns and labels:
[1] = system: primary human neutrophils; experiment: Neutrophil transmigration to chemoattractant or sample in 96-well co-culture, counted by flow cytometry; format: cell-based; details: for number of counted transmigrated neutrophils versus chemoattractant dose: 3 healthy donors, 16 hours, two-way ANOVA p<0.0001
[2] = system: endothelium of H441-HUVEC co-culture; experiment: Endothelial von Willebrand factor release after epithelial exposure; format: cell-based, human; details: epithelial side exposed for 10 minutes
Method: Staining and imaging. All stains used reagents from ThermoFisher's Image-iT™ Fixation/Permeabilization Kit (R37602) for washing, fixing, blocking, and permeabilization. For all stains, inserts were cut out and fixed on glass slides for 10 minutes at 37° C. For stains requiring permeabilization, the inserts were incubated with 0.5% Triton X (ImageIT kit) for 5 minutes at 37° C. All inserts were blocked for 1 hour at 37° C., counterstained with DAPI (1:1000 in PBS for 5 minutes) and mounted between two coverslips with ProLong™ Diamond Antifade Mountant (Invitrogen). F-actin. After fixation, permeabilization, and blocking, inserts were incubated for 1 hour at 37° C. in Alexa Fluor™ 647 Phalloidin (Invitrogen) diluted 1:20 from stock solution in 1% BSA (Image-iT™). ZO-1/e-cadherin co-stain. After fixation, permeabilization, and blocking, the primary antibodies (ZO-1 Rabbit anti-human polyclonal antibody, ThermoFisher 61-7300, 1:200; e-cadherin Mouse anti-human monoclonal antibody, ThermoFisher 13-1700, 1:2000) were suspended together in 1% BSA (Image-It Kit) and co-incubated with the inserts for 2 hours at 37° C. The secondary antibodies (Goat anti-Rabbit IgG, Alexa Fluor 405, Abcam ab 175665, 1:200; Goat anti-mouse IgG, Alexa Fluor 647, ThermoFisher A32728, 1:500) were suspended in 1% BSA and incubated with the filters for 2 hours at 37° C. […]

[3] = system: endothelium of H441-HUVEC co-culture; experiment: IL-8 on the endothelial side of the H441/HUVEC co-culture (ELISA); format: cell-based, human; details: 24-hour exposure on the epithelial side
Method: Then, IL-8 produced on the endothelial side was measured by ELISA (R&D Systems). […] Statistics were performed in GraphPad Prism 9.
Cytokine quantitation. Cell culture supernatants were collected at specified intervals. IL-6 and IL-8 were quantified with ELISA assays according to manufacturer instructions (Human IL-6 DuoSet ELISA, R&D Systems DY206-05; Human IL-8/CXCL8 DuoSet ELISA, R&D Systems, DY208-05; DuoSet ELISA Ancillary Reagent Kit 2, R&D Systems; DY008.

[4] = Sodium fluorescein permeability across epithelial-endothelial co-culture; format: in vitro ADME; details: human
[5] = system: HUVEC; experiment: Tolerance of HUVEC to puromycin in routine culture; format: cell-based, human; details: long time periods; unpublished observation
Text: HUVEC maintenance in T-75 flasks. Primary Human Umbilical Vein Endothelial Cells were employed from ATCC (ATCC® PCS-100-013™) and expanded according to manufacturer instructions in Vascular Cell Basal Medium (ATCC® PCS-100-030™) supplemented with Endothelial Cell Growth Kit-VEGF (ATCC® PCS-100-041™) with added Penicillin-Streptomycin (Gibco™ 15140148) diluted 1:100 v:v. HUVECs were transduced to constitutively express RFP. […] Cells were passaged at 60-80% confluence according to manufacturer instructions, counted with Nexcelcom Cellometer Auto T4 Bright Field Cell Counter (Nexcelcom Bioscience) using Trypan Blue viability stain, and used below the passage 10 since expanding from ATCC.
Lentiviral transduction. H441 cells and HUVECs were transduced with lentivirus to constitutively express GFP and RFP, respectively. H441 cells were seeded in T-75 flasks at 0.75e6 cells/75 cm^2 and allowed to attach overnight. Then H441 cells were inoculated with GFP gene-bearing lentivirus with puromycin resistance (Brand, product #). Lentivirus (8 TU/cell) was suspended in H441 routine culture media with the addition of transfection reagent polybrene ([…]). The cells were inoculated overnight and then allowed to recover in routine cell culture media for 72 hours with media changes every 48 hours. […]

Compound: CCCCC/C=C\C[C@@H](O)/C=C/C=C/C=C\[C@@H](O)CCCC(=O)O [LTB4, leukotriene B4]
number of counted transmigrated neutrophils versus chemoattractant dose [1]: effect of chemoattractant dose

Compound: polyinosinic:polycytidylic acid [poly(I:C)]
endothelial von Willebrand factor (VWF) exocytosis [2]: immediately exocytosed von Willebrand factor
endothelial release of IL-8 [3]: weakly dose-dependent

Papp at 2 h, 30 µM ([4]; H441/HUVEC co-culture at ALI, S.D. 1.63e-5 cm/s, 95% CI 1.53e-6-1.25e-5 cm/s): 7.04 ×10⁻⁶ cm/s
Papp at 3 h, 30 µM ([4]; control, no exposure, at ALI, over a 3-hour period, n=4, read-out: permeability of the control bilayer co-culture): 7.04 ×10⁻⁶ cm/s
Compound: O=C1OC2(c3ccc(O)cc3Oc3cc(O)ccc32)c2ccccc21 [NaFL, Fluorescein sodium salt]

Compound: IL-8: recombinant human protein IL-8 (HEK-expressed, activity tested), chemoattractant
number of counted transmigrated neutrophils versus chemoattractant dose [1]: effect of chemoattractant dose
neutrophil transmigration numbers versus concentration ([1]; 18 hour transmigration time): increase

Compound: COc1ccc(C[C@H](N)C(=O)N[C@H]2[C@@H](O)[C@H](n3cnc4c(N(C)C)ncnc43)O[C@@H]2CO)cc1 [puromycin]
tolerance by HUVEC in routine culture medium [5]: did not tolerate it well for long time periods
